The text below walks through data of publication PMC12010322, “ReaxFF-Guided Optimization of VIRIP-Based HIV-1 Entry Inhibitors” (The Journal of Physical Chemistry. B, 2025).

Data set [1] deals with zebrafish embryos. Description: Zebrafish embryo toxicity. Particulars: for toxicity in zebrafish embryos: embryos exposed from 24 hpf for 24 h, 60 embryos per group, two experiments, NRC-03 3 μM, abamectin 3.125 μM. The procedure:
For in vivo studies, wild-type zebrafish embryos (Danio rerio) were dechorionated at 24 h post fertilization (hpf) using digestion with 1 mg/mL Pronase (Sigma) in E3 medium ([…]). In a 96-well plate, 3 embryos per well were exposed for 24 h to 100 μL of E3 containing VIRIP peptides at the concentrations indicated in the figures. Two independent assays were performed, each with 10 × 3 embryos. The peptide solvent (DMSO), diluted in E3, was used as negative control at the same amount as introduced by the peptide stock. […] Abamectin at a concentration of 3.125 μM was used as positive control for neurotoxicity.[49] At 48 hpf (after 24 h of incubation) embryos were scored in a stereomicroscope for signs of cytotoxicity (lysis and/or necrosis), developmental toxicity (delay and/or malformations) or cardiotoxicity (heart edema and/or reduced or absent circulation). Each embryo was also touched with a needle and reduced or absent touch response (escape movements) was evaluated as signs of neurotoxicity if and only if no signs of acute toxicity were present in the same embryo. Embryos were categorized within each of these toxicity categories into several classes of severity.[35]

Data set [2] has as its system HIV-1 CH077 (clade B transmitted-founder). To be noted: TZM-bl cells, clade B CH077 TF HIV-1. As to the method:
(§1) Figure 3 Size optimization of VIR-148. (A) TZM-bl reporter cells were incubated with increasing concentrations of VIR-148, VIR-102, or the indicated internally truncated itVIRIP derivatives. Cells were subsequently infected with HIV-1 NL4-3, and beta-galactosidase activity was determined 3 days after infection. (B) Hemolytic effect of indicated compounds on human erythrocytes. Each tile represents the area under the curve (AUC) for hemolytic activity. Full hemolysis is represented by a Triton-X control. (C) Amino acid alignment of the FP regions (red) of HIV-1 CH042, CH077, SIVmac239 and HIV-2 ROD10. (D) TZM-bl cells were incubated with increasing concentrations of VIR-148 or soVIRIP and subsequently infected with the HIV-1 CH042 or CH077, SIVmac239 or HIV-2 ROD10. […] The contribution of each amino acid to the binding interaction is indicated by color saturation. (F) Time-resolved ReaxFF-based molecular dynamics simulation of the interaction between soVIRIP and the HIV-1 FP. The trajectories are shown for VIR-148 (blue) and soVIRIP (orange). (G) Correlation between the free energy contribution of each amino acid of soVIRIP with the corresponding amino acid in VIR-148, based on ReaxFF simulations.
(§2) To determine infectious virus yield, 10,000 TZM-bl reporter cells/well were seeded in 96-well plates and infected with cell culture supernatants, under reduced 1% FCS conditions, in triplicates on the following day. Three days p.i., cells were lysed and β-galactosidase reporter gene expression was determined using the GalScreen Kit (Applied Bioscience) according to the manufacturer’s instructions with an Orion microplate luminometer (Berthold).
(§3) 10,000 TZM-bl reporter cells were seeded in 96-well plates in 100 μL of supplemented DMEM. The following day, the medium was changed to reduced 1% FCS-supplemented DMEM, and serially diluted peptide was added to the cells. The cells were subsequently infected with 10 μL of infectivity-normalized virus stocks. At 3 days postinfection, the supernatant was removed, and β-galactosidase activity was measured as previously described.

Data set [3] relates to HIV-1 CH042 (clade C transmitted-founder). Particulars: TZM-bl cells, clade C CH042 TF HIV-1. The procedure:
as §1, §2, §3

For data set [4], the system named is SIVmac239. Description: TZM-bl infection inhibition, SIVmac239. It is filed as cell-based, SIVmac. To be noted: TZM-bl cells. The procedure: (§4) Figure 3 Size optimization of VIR-148. (A) TZM-bl reporter cells were incubated with increasing concentrations of VIR-148, VIR-102, or the indicated internally truncated itVIRIP derivatives. Cells were subsequently infected with HIV-1 NL4-3, and beta-galactosidase activity was determined 3 days after infection. (B) Hemolytic effect of indicated compounds on human erythrocytes. Each tile represents the area under the curve (AUC) for hemolytic activity. Full hemolysis is represented by a Triton-X control. (C) Amino acid alignment of the FP regions (red) of HIV-1 CH042, CH077, SIVmac239 and HIV-2 ROD10. […]
as §2
(§5) 10,000 TZM-bl reporter cells were seeded in 96-well plates in 100 μL of supplemented DMEM. […] At 3 days postinfection, the supernatant was removed, and β-galactosidase activity was measured as previously described.

Data set [5] deals with HIV-1 NL4-3.
From the text: To further define critical residues and to assess whether the loop structure is required for antiviral activity, we generated short peptides of six, seven or ten amino acids corresponding to the C- or N-termini of VIR-148, respectively. To determine their antiviral activity, we pretreated TZM-bl reporter cells with various concentrations of individual or mixed peptides and subsequently exposed them to the CXCR4-tropic HIV-1 NL4–3 strain. TZM-bl reporter cells are highly susceptible to HIV-1 infection and contain the β-galactosidase reporter gene under the control of the HIV-1 long terminal repeat.[34] Three days later, infection was quantified by β-galactosidase assay.
as §2, §3

Data set [6] has as its system HIV-2 ROD10. The experiment in a line: TZM-bl infection inhibition, HIV-2 ROD10. It is filed as cell-based. Particulars: TZM-bl cells. As to the method: as §4, §2, §5

“Also recorded” adds a separate entry of the source. Bridge positions count the residues as written; N and C are the ends. Ends that are not written are not given here. Peptide text beside a SMILES is read from it.

In the case of abamectin [reference compound], in data set [1], the “toxicity in zebrafish embryos” value is reported as “exhibited the expected toxicities”.

In the case of `CC[C@H](C)[C@H](NC(=O)[C@H](C)NC(=O)[C@H](CCC(=O)O)NC(=O)[C@@H](N)CC(C)C)C(=O)N1CCC[C@H]1C(=O)N[C@H]1CSSC[C@@H](C(=O)N[C@H](C(=O)N[C@@H](C)C(=O)N[C@@H](Cc2ccccc2)C(=O)N[C@@H](CC(N)=O)C(=O)N[C@@H](CCCCN)C(=O)N2CCC[C@H]2C(=O)N[C@@H](Cc2ccccc2)C(=O)N[C@H](C(=O)N[C@@H](Cc2ccccc2)C(=O)O)C(C)C)C(C)C)NC(=O)[C@@H]2CCCN2C(=O)[C@@H]2CCCN2C(=O)[C@H]([C@@H](C)CC)NC(=O)[C@H](CO)NC1=O` [VIR-148, reference compound] (H-LEAIPCSIPPCVAFNKPFVF-OH; disulfide 6-11), the IC50 (in general, the concentration that gives 50% inhibition) in data set [2] came to 39 nM; in data set [3], 37 nM.

On to LEAIPVAFVF [soVIRIP], for which the “toxicity in zebrafish embryos” value in data set [1] was “did not display significant toxic effects; also recorded: nontoxic”. Besides, the “nontoxic concentration relative to IC50 against primary HIV-1 strains” value in data set [1] (zebrafish embryos) is given as “about 2,500 fold”. Also, the values for the IC50 in data set [2], in data set [3] and in data set [5] (NL4-3) were 39 nM, 37 nM and 120 nM, respectively. Moreover, in data set [4], the “activity against SIVmac239” value is “inactive”. The “antiviral activity (in words)” value in data set [5] (TZM-bl reporter cells, HIV-1 NL4-3, β-galactosidase 3 days postinfection) was “maintained full antiviral activity”. The “higher antiviral activity compared to the original VIRIP” value in data set [5] (ratio of IC50 values) is recorded as “more than 100 fold”. Further, in data set [6], the “activity against HIV-2 ROD10” value was “inactive”.

On to “GRRKRKWLRRIGKGVKIIGG AALDHL-NH2 [NRC-03, reference compound]”, for which the “toxicity in zebrafish embryos” value in data set [1] was “exhibited the expected toxicities”.
